In test [1] the test system is ischämische Herzschäden. The note with it: oral, initial 100 mg, then 20-40 mg/d; 17187 Patienten; cited from earlier work.
Test [2] has as its system venolären Endothelzellen (VEC). In words: Time-lapse video microscopy of venular endothelial cell layers, opening/sealing of intercellular gaps (Versuchsgruppe 3). The class given is cell-based. The note with it: for Abdichtung der Interzellularspalten: in presence of activated PMN and Thrombozyten (Abb. 3), 50 µM each. The protocol: In vitro kultivierte Schichten aus venolären Endothelzellen (VEC) werden unter Einsatz von Zeitraffervideomikrokinematographie (siehe Abb. 5) mit speziell entwickelter Methodik direkt beobachtet. Die durch aktivierte Thrombozyten (Anwendung von 1 U/ml Thrombin) und aktivierte PMN (Anwendung von 1 µM FMLP) induzierte Öffnung von Endothelbarrieren (= Öffnung der Interzellularspalten der Endothelzellen) kann so im Zeitablauf dokumentiert werden. Als Beispiel dient eine Serie von Aufnahmen, die den direkten Angriff der Blutzellen dokumentiert (Abb. 3) bzw. eine analoge Serie, die mit dem Überstand der aktivierten Blutzellen durchgeführt wurde (Abb. 4).
Die durch die Blutzellen zunächst geweiteten Interzellularspalten werden durch die Wirkstoffe wieder abgedichtet.
Abbildung 5 zeigt den experimentellen Aufbau für die videomikroskopische Beobachtung zellulärer Interaktionen an Endotheloberflächen: A-Gewebekulturmikroskop, B-Spezialinkubator mit Steuereinheit C, D-Gaszylinder mit 5% CO2, E-Waschflasche, F-Videokamera, G-Kamera-Kontroll-Einheit, H-Videorecorder, I-Monitor, J-Fotoapparat.

Test [3] relates to venoläre Endothelzellen. In words: Hydraulic conductivity (LP) across confluent venular endothelial cell layers on porous filters (Versuchsgruppe 2 / Beispiel 12). The class given is cell-based, Meerschweinchen. The source says: Als Studienobjekt dienten bis zur Konfluenz etablierte Schichten venolärer Endothelzellen auf porösen Filtern, die in einer speziell entwickelten Apparatur zur Trennung zweier Flüssigkeitskompartimente eingesetzt wurden. So konnte z. B. der druckabhängige Wassertransport (hydraulische Konduktivität = LP mit der Dimension 10^-5 cm / s / cm H2O) über die gezüchteten Endothelschichten unter dem Einfluß von Blutzellen unter entzündlichen Bedingungen studiert werden.
Details der Versuchsanordnung gehen aus den Abb. 1 und 2 hervor. Abbildung 1 zeigt ein wiederverwendbares, autoklavierbares Filterspannsystem bestehend aus (1) dem Formteil aus Polycarbonat, (2) dem Polycarbonatfilter, (3) dem stählernen Spannring und (4) dem Haltering aus Polycarbonat. Die Darstellung rechts neben dem Stapel der Einzelteile zeigt einen Querschnitt und eine Aufsicht des zusammengefügten Systems. Abbildung 2 zeigt eine Versuchsapparatur zur Messung hydraulischer Konduktivitäten von konfluenten Zellschichten, (1) Basisteil mit Magnetrührer (1a), (2) basales Flüssigkeitskompartiment mit Stopfen (2a) bzw. Zugang für Eppendorfpipetten (2b), (3) Steigrohr, (4) oberes Flüssigkeitskompartiment, zwischen den Flüssigkeitskompartimenten (2) und (4) liegt der ausgespannte Filter, (5), (6), (7) peristaltische Pumpen, (8) Vorratsgefäß für die Konstanthaltung des hydrostatischen Niveaus im oberen Flüssigkeitskompartiment, (9) Sammelgefäß für filtriertes Volumen.
Der Nachweis der Wirkung von Verbindungen als Hemmstoffe der Kontraktilität von venolären Endothelzellen erfolgt analog zur in Versuchsgruppe 2 charakterisierten Vorgehensweise unter Verwendung der dort beschriebenen Versuchsanordnung (vgl. Abb. 1 und 2) und wird hier am Beispiel des Apigenins (chemische Formel siehe Tabelle 1) dargestellt.
Venoläre Endothelzellen werden unter Verwendung einer speziellen, nachstehend beschriebenen Technik isoliert und auf porösen Polycarbonatfiltern (Porendurchmesser 0,4 µm, Fa. Nucleopore, Pleasanton, USA) unter Verwendung ebenfalls nachstehend beschriebener Zellkulturtechniken bis zur Konfluenz kultiviert. Diese endothelbeschichteten Filter werden in einer speziellen Apparatur (siehe Abb. 1 und 2) zur Trennung zweier Flüssigkeitskompartimente eingesetzt. Als Meßgröße für die Kontraktilität der venolären Endothelzellen dient der druckabhängige Wassertransport (hydraulische Konduktivität = LP mit der Dimension 10^-5 cm / s / cm H2O) über die gezüchteten Endothelschichten, der bei Kontraktion der Endothelzellen durch Übergang von der pflastersteinartigen zur sphärischen Form (vgl. Versuchsgruppe 3 mit Abb. 3 und 4) und die damit einhergehende Öffnung von Interzellularspalten zunimmt
Eine Lösung von Plasmasalzen (=physiologische Salzlösung, Zusammensetzung siehe unten) mit Zusatz von 0,1% Albumin und von aus peripherem Blut wie nachfolgend beschrieben isolierten Granulozyten (=PMN, Konzentration 10^5/ml) und Thrombozyten (10^6/ml) wird mit 1 µM FMLP und 1 U/ml Thrombin versetzt. Durch Zentrifugieren (10 min bei 1000 g) wird der Überstand gewonnen und in das obere Flüssigkeitskompartiment der Versuchsapparatur eingebracht. Dadurch erhöht sich - als Ausdruck der Kontraktion der venoiären Endothelzellen - die hydraulische Konduktivität gegenüber dem Ausgangswert (Nr. 1 in Tabelle 4) um ca. 1600 % (Nr. 10 in Tabelle 4).
Zur Dissoziation des Myokardgewebes werden zunächst mit Krebs-Henseleitlösung (KHL) nach Langendorff bei 120 mmHg 10 min perfundierte Meerschweinchenherzen 35 min lang mit einem in KHL angesetzten Proteasegemisch perfundiert (42 mg Kollagenase D + 60 mg Dispase II + 5 mg Trypsin + 58 mg Serumalbumin aus Rinderblut, gelöst in 42 ml Ca^2+-freier KHL; 1 ml/min; Kollagenase und Dispase: Boehringer, Mannheim, Trypsin: 1:250, Serva, Heidelberg). […]

The subject of test [4] is Meerschweinchenherzen. In words: Working guinea pig heart, ischaemia/reperfusion with activated PMN and platelets (Versuchsgruppe 1). Also noted: species or system Meerschweinchen. The conditions noted are these: for Herzleistung [% der initialen Leistung] / Interstitielles Volumen / Koronarfluß [% des Basalflusses]: flavone derivative 3*10^-5 M, individual hearts. The protocol:
Pathogene Wirkung von gleichzeitig aktivierten PMN und Thrombozyten im ischämischen Herzen. Als Studienobjekt dienten arbeitende, also Volumen gegen bestimmte Drucke auswerfende Meerschweinchenherzen. […] Thrombin, FMLP ([…]-Formyl-[…]) und […] Interaktion der Blutzellen mit dem koronaren Endothel bei diesen Versuchen. Tabelle 3: ^i Als Blutzellpräparate wurden eingesetzt: a) hochreine PMN (1-2*10^5/ml), […] Vorinkubation mit 100 μM […]) bzw. […] von PMN und TASS (bzw. T) in jeweils analogen Konzentrationen. Tabelle 3 gibt die unter […] bei […] von PMN und Thrombozyten (TASS = […] Vorinkubation mit 100μM […] = nicht […].

The mark [5] stands for this setting: FMLP-activated PMN alone (Nr. 4-6), 50 µM.
Setting [6] is: IPA + PMN (10^5/ml) + Thrombin (1 U/ml) + 1 µM FMLP, substance 50 µM, control without substance 5,40, baseline 1,80.
The mark [7] stands for this setting: IPA + supernatant of thrombin-activated Thrombozyten (10^6/ml) and FMLP-activated PMN (10^5/ml), substance 50 µM, control without substance 31,2, baseline 1,80.
Setting [8] is: PMN+T (platelets not preincubated with Acetylsalicylsäure).
[9] abbreviates: PMN+TASS (platelets preincubated 1 h with 100 µM Acetylsalicylsäure, washed).

Where “and” joins values, the source holds several entries; their conditions need not be identical. Identical values can stand only once. Entries after “also recorded” stand apart in the source; their conditions may differ.

As to `CC(=O)Oc1ccccc1C(=O)O` [Acetylsalicylsäure, reference compound], the “ischämische Herzschäden” value in test [1] is given as “signifikant”. Besides, the “Abdichtung der Interzellularspalten” value in test [2] is reported as “nicht zur Abdichtung der Interzellularspalten”. Further, in test [3] (setting [5]), the “Effect on increase of LP” value was “keinen Effekt”. The “LP [10^-5 cm/s/cm H2O]” value in test [3] (setting [6]) was 5,78 ±0,68 10^-5 cm/s/cm H2O; in test [3] (setting [7]), 28,2 ± 1,7 10^-5 cm/s/cm H2O. Further, the “Verschlechterung der postischämischen Funktionsdaten (ΔP/Δt; interstitielles Volumen; Koronarfluß)” value in test [4] (platelets preincubated with 100 µM Acetylsalicylsäure, no flavonoid) is on record as “lediglich teilweisen Abschwächung”.
Take `O=c1cc(-c2ccc(O)cc2)oc2cc(O)cc(O)c12` [Apigenin]: the “Effect on increase of LP” value is listed as “keine Erhöhung von LP” in test [3] (setting [5]); “hemmt diesen Effekt nur schwach” in test [3] (simultaneously activated Thrombozyten and PMN (Nr. 7-9), 50 µM each). For the same compound, the “LP [10^-5 cm/s/cm H2O]” value was 1,75 ± 0,06 10^-5 cm/s/cm H2O in test [3] (setting [6]); 25,5 ± 4,1 10^-5 cm/s/cm H2O in test [3] (IPA + PMN (10^5/ml) + Thrombozyten (10^6/ml) + Thrombin (1 U/ml) + 1 µM FMLP, each substance 50 µM, control without substance 33,7, baseline 1,80); 1,90 ± 0,07 10^-5 cm/s/cm H2O in test [3] (setting [7]). The “Kontraktion der venolären Endothelzellen (hydraulische Konduktivität)” value in test [3] (supernatant of activated PMN and Thrombozyten (Nr. 10, 11), 50 µM) is “fast vollständig gehemmt”. Also, the “Herzleistung [% der initialen Leistung]” value in test [4] (setting [8]) is 52 % der initialen Leistung and 67 % der initialen Leistung and 74 % der initialen Leistung and 73 % der initialen Leistung and 64 % der initialen Leistung and 71 % der initialen Leistung; in test [4] (setting [9]), 94 % der initialen Leistung and 96 % der initialen Leistung and 89 % der initialen Leistung and 88 % der initialen Leistung and 97 % der initialen Leistung. Besides, the “Interstitielles Volumen” value in test [4] (setting [8]) was 142 µL/g and 201 µL/g and 177 µL/g and 166 µL/g and 130 µL/g; in test [4] (setting [9]) it was 95 µL/g and 120 µL/g and 105 µL/g and 102 µL/g and 97 µL/g and 91 µL/g. Moreover, the “Koronarfluß [% des Basalflusses]” value in test [4] (setting [8]) was 56 % des Basalflusses (2×) and 49 % des Basalflusses and 53 % des Basalflusses and 59 % des Basalflusses and 65 % des Basalflusses; in test [4] (setting [9]), 102 % des Basalflusses and 107 % des Basalflusses and 98 % des Basalflusses and 95 % des Basalflusses and 91 % des Basalflusses and 109 % des Basalflusses. The “Verschlechterung der postischämischen Funktionsdaten (ΔP/Δt; interstitielles Volumen; Koronarfluß)” value in test [4] (acute application of the flavonoid alone) was “abgeschwächt”; in test [4] (flavonoid applied in combination with Acetylsalicylsäure) it was “vollständig aufgehoben”.
Take `C[C@@H]1O[C@@H](OC[C@H]2O[C@@H](Oc3c(-c4ccc(OCCO)c(OCCO)c4)oc4cc(OCCO)cc(O)c4c3=O)[C@H](O)[C@@H](O)[C@@H]2O)[C@H](O)[C@H](O)[C@H]1O` [Trihydroxyethylrutosid]: in test [2], the “Abdichtung der Interzellularspalten” value is “nicht zur Abdichtung der Interzellularspalten”. Moreover, the “Abdichtung der Spalten / Reparatur der Endothelschicht” value in test [2] (supernatant of activated PMN and Thrombozyten, blood cells absent (Abb. 4), without Acetylsalicylsäure) was “fast vollständige Reparatur der Endothelschicht; also recorded: Endothel-reparativen Effekt”.

The values above are taken from EP1100539B1, “COMBINATION OF ACTIVE SUBSTANCES, ESPECIALLY FOR THE PROPHYLAXIS AND THERAPY OF ISCHAEMIC ORGANIC LESIONS AND REPERFUSION SYNDROMES” (Vascular Biotech GmbH, priority 1998, dated 2000).
